Source: patent publication US10081629B2, “Amide derivatives and pharmaceutically acceptable salts thereof, preparation method thereof and medicinal application thereof” (Shanghai Hengrui Pharmaceutical Co., Ltd., priority 2014, dated 2018)

Columns and labels:
[1] = biological target: human mPGES1 (Homo sapiens (Human), UniProt O14684); assay: Inhibition activity for human mPGES1 (enzyme assay, PGE2 HTRF); format: biochemical; conditions: membrane protein from HEK-293 F transfected with human mPGES1
Experimental: The method described here is used for determining the inhibition activity of the present compounds for human mPGES1.
• 1. PGE2 Assay kit (Cisbio, #62P2APEB) • 2. Prostaglandin H2 (Sigma, #P7867-1MG) • 3. FlexStation3 microplate reader. II. Experimental Procedure • 1. Obtaining the membrane proteins of mPGES1 enzyme
The cell density of HEK-293 F was grown to 6×10^5 per milliliter and was transferred with the plasmid containing human mPGES1 gene by transfection reagent PEI the next day. The cells were continuously cultured for 72 hours at 37° C. with shaking. After centrifuging at 1100 g for 5 minutes, the cells were harvested. After ultrasonication in an ice bath and centrifugation at 5000 g for 10 minutes, the supernatant was obtained. The supernatant was centrifuged at 100000 g for 1 hour to obtain a precipitate. The precipitate was resuspended with storage buffer containing 10% glycerinum, subpackaged and frozen rapidly under liquid nitrogen, and stored at −80° C. • 2. mPGES1 enzyme assay
mPGES1 was diluted with assay buffer and added into plate at 49 μL/well supplemented with 1 μL of compound (the final concentration of each compound at seven gradient concentrations was 10000 nM, 1000 nM, 100 nM, 10 nM, 1 nM, 0.1 nM and 0.01 nM). […] Then, each well was added with 53.8 μL of 6 mg/mL SnCl2 to quench the reaction. The sample was diluted with dilute buffer at 1:400. 10 μl of diluted sample, 5 μL PGE2-d2 and 5 μL anti-PGE2 Cryptate were added to a black 384-well plate, and incubated at 4° C. overnight. HTRF was determined using Flexstation, and the IC50 of the compounds was obtained by data processing software.
The inhibition activity of the present compounds on mPGES1 was tested by the assay described above.

[2] = system: secretion of PGE2 by A549 cells stimulated with IL-1β; assay: Inhibition of the secretion of PGE2 by A549 cells stimulated with IL-1β; format: cell-based; conditions: IL-1β 0.2 ng/mL, 24 hours
Source text: The method described here was used for determining the inhibition activity of the present compounds on the secretion of PGE2 by A549 cells stimulated with IL-1β.
• 1. PGE2 Assay kit (Cisbio, #62P2APEB) • 2. IL-1β (Peprotech, # AF-200-01B) • 3. Cell line: A549 (ATCC: CCL-185) • 4. FlexStation3 microplate reader. II. Experimental Procedure
On the first day, A549 cells were inoculated in a 96-well plate at 40000/well. On the second day, the culture medium in the 96-well plate was removed and then added with 90 μL of compound diluted with culture medium (the concentration of each compound at seven gradient concentrations was 11111 nM, […], 1.11 nM, 0.11 nM and 0.011 nM). The cells were incubated for 30 minutes at 37° C. in an incubator, and then added with IL-1β to a final concentration of 0.2 ng/mL. Then, the cells were incubated for another 24 hours at 37° C. On the third day, 10 μl of supernatant, 5 μL of PGE2-d2 and 5 μL of anti-PGE2 Cryptate were added into a black 384-well plate, and then incubated at 4° C. overnight. HTRF was determined using Flexstation, and the IC50 of the compounds was obtained by data processing software.
The inhibition activity of the present compounds on the secretion of PGE2 by A549 cells stimulated with IL-1β was determined by the assay described above.

human mPGES1, sequence (O14684 whole entry): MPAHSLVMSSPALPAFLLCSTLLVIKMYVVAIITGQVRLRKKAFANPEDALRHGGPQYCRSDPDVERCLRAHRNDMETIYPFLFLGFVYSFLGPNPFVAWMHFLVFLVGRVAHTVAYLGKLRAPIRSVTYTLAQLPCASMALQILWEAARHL

Row | Structure (SMILES) | IC50 [1] | IC50 ([2]; Homo sapiens, A549) | IC50 [2]
1 | CCn1c(-c2ccc(C(F)(F)F)cc2)cc2cc(NC(=O)c3cc(CNC(=O)C(C)C)cnc3C(F)F)ccc21 [Example 1, 2-(difluoromethyl)-N-(1-ethyl-2-(4-(trifluoromethyl)phenyl)-1H-indol-5-yl)-5-((2-methylpropanoylamino)methyl)nicotinamide] | 8.26 nM | 3.55 nM | –
2 | CCn1c(-c2ccc(F)cc2)cc2cc(NC(=O)c3cc(CNC(=O)C(C)(C)C)ccc3Cl)cnc21 [Example 4, 2-Chloro-N-(1-ethyl-2-(4-fluorophenyl)-1H-pyrrolo[2,3-b]pyridin-5-yl)-5-((2,2-dimethylpropanoylamino)methyl)-benzamide] | – | 26.9 nM | –
3 | CCn1c(-c2ccc(F)cc2)cc2cc(NC(=O)c3cc(CNC(=O)C(C)C)cnc3C(F)F)ccc21 [Example 5, 2-(Difluoromethyl)-N-(1-ethyl-2-(4-fluorophenyl)-1H-indol-5-yl)-5-((2-methylpropanoylamino)methyl)nicotinamide] | 22 nM | 12.4 nM | –
4 | CCn1cc(-c2ccc(F)cc2)c2cc(NC(=O)c3cc(CNC(=O)C(C)(C)C)ccc3Br)ccc21 [Example 6, 2-Bromo-N-(1-ethyl-3-(4-fluorophenyl)-1H-indol-5-yl)-5-((2,2-dimethylpropanoylamino)methyl)-benzamide] | – | 68.1 nM | –
5 | CCn1c(-c2ccc(F)cc2)cc2cc(NC(=O)c3cc(CNC(=O)C(C)(C)C)ccc3Br)ccc21 [Example 7, 2-Bromo-N-(1-ethyl-2-(4-fluorophenyl)-1H-indol-5-yl)5-((2,2-dimethylpropanoylamino)methyl)-benzamide] | – | 10.4 nM | –
6 | CC(C)C(=O)NCc1cnc(C(F)F)c(C(=O)Nc2ccc3c(c2)cc(-c2ccc(C(F)(F)F)cc2)n3C)c1 [Example 9, 2-(difluoromethyl)-N-(1-methyl-2-(4-(trifluoromethyl)phenyl)-1H-indol-5-yl)5-((2-methylpropanoylamino)methyl)-nicotinamide] | 15.6 nM | 11.8 nM | –
7 | CCn1c(-c2ccc(Cl)cc2)cc2cc(NC(=O)c3cc(CNC(=O)C(C)C)cnc3C(F)F)ccc21 [Example 10, 2-(Difluoromethyl)-N-(1-ethyl-2-(4-chlorophenyl)-1H-indol-5-yl)-5-((2-methylpropanoylamino)methyl)nicotinamide] | 11.2 nM | 12.3 nM | –
8 | CC(C)C(=O)NCc1cnc(C(F)F)c(C(=O)Nc2ccc3c(c2)cc(-c2ccc(Cl)cc2)n3C)c1 [Example 13, N-(2-(4-chlorophenyl)-1-methyl-1H-indol-5-yl)-2-(difluoromethyl)-5-((2-methylpropanoylamino)methyl)nicotinamide] | 7.43 nM | 16.7 nM | –
9 | Cn1c(-c2ccc(C(F)(F)F)cc2)cc2cc(NC(=O)c3cc(CNC(=O)C(C)(C)F)cnc3C(F)F)ccc21 [Example 15, 2-(Difluoromethyl)-5-(((2-fluoro-2-methyl-propanoyl)amino)methyl)-N-(1-methyl-2-(4-(trifluoromethyl)phenyl)-1H-indol-5-yl)nicotinamide] | 23.4 nM | 33.3 nM | –
10 | CC(C)(C)C(=O)NCc1ccc(Cl)c(C(=O)Nc2ccc3nn(-c4ccc(Cl)cc4)cc3c2)c1 [Example 16, 2-Chloro-N-(2-(4-chlorophenyl)-2H-indazol-5-yl)-5-((2,2-dimethylpropanoylamino)methyl)benzamide] | 9.31 nM | 26.2 nM | –
11 | Cn1c(-c2ccc(Cl)cc2)cc2cc(NC(=O)c3cc(CNC(=O)C(C)(C)F)cnc3C(F)F)ccc21 [Example 18, N-(2-(4-Chlorophenyl)-1-methyl-1H-indol-5-yl)-2-(difluoromethyl)-5-(((2-fluoro-2-methyl-propanoyl)amino)methyl)nicotinamide] | 5.15 nM | – | 17.2 nM
12 | CCn1c(-c2ccccc2Cl)cc2cc(NC(=O)c3cc(CNC(=O)C(C)(C)F)cnc3C(F)F)ccc21 [Example 19, N-(2-(2-Chlorophenyl)-1-ethyl-1H-indol-5-yl)-2-(difluoromethyl)-5-(((2-fluoro-2-methyl-propanoyl)amino)methyl)nicotinamide] | 8.12 nM | 42.6 nM | –
13 | Cn1c(-c2ccc(Cl)cc2)cc2cc(NC(=O)c3cc(CNC(=O)C4(C(F)(F)F)CC4)cnc3C(F)F)ccc21 [Example 21, N-(2-(4-Chlorophenyl)-1-methyl-1H-indol-5-yl)-2-(difluoromethyl)-5-(((1-(trifluoromethyl)cyclopropanecarbonyl)amino)methyl)nicotinamide] | 8.24 nM | 57.4 nM | –
14 | CC(C)(C)C(=O)NCc1ccc(Cl)c(C(=O)Nc2ccc3oc(-c4ccc(C(F)(F)F)cc4)nc3c2)c1 [Example 22, 2-Chloro-5-((2,2-dimethylpropanoylamino)methyl)-N-(2-(4-(trifluoromethyl)phenyl)benzo[d]oxazol-5-yl)benzamide] | 6.69 nM | 38.8 nM | –
15 | CC(C)(F)C(=O)NCc1cnc(C(F)F)c(C(=O)Nc2ccc3oc(-c4ccc(C(F)(F)F)cc4)nc3c2)c1 [Example 23, 2-(Difluoromethyl)-5-(((2-fluoro-2-methyl-propanoyl)amino)methyl)-N-(2-(4-(trifluoromethyl)phenyl)benzo[d]oxazol-5-yl)nicotinamide] | 4.73 nM | 49 nM | –
16 | CC(C)C(=O)NCc1cnc(C(F)F)c(C(=O)Nc2ccc3nn(-c4ccc(C(F)(F)F)cc4)cc3c2)c1 [Example 24, 2-(Difluoromethyl)-5-((2-methylpropanoylamino)methyl)-N-(2-(4-(trifluoromethyl)phenyl)-2H-indazol-5-yl)nicotinamide] | 17.2 nM | 45.6 nM | –
17 | CC(C)(C)C(=O)NCc1ccc(Cl)c(C(=O)Nc2ccc3c(c2)CN(c2ccc(C(F)(F)F)cc2)C3)c1 [Example 25, 2-Chloro-5-((2,2-dimethylpropanoylamino)methyl)-N-(2-(4-(trifluoromethyl)phenyl)isoindolin-5-yl)benzamide] | 11.9 nM | 47.6 nM | –
18 | CC(C)(F)C(=O)NCc1cnc(C(F)F)c(C(=O)Nc2ccc3c(c2)CN(c2ccc(C(F)(F)F)cc2)C3)c1 [Example 26, 2-(Difluoromethyl)-5-(((2-fluoro-2-methyl-propanoyl)amino)methyl)-N-(2-(4-(trifluoromethyl)phenyl)isoindolin-5-yl)nicotinamide] | 3.38 nM | 46 nM | –
19 | Cn1c(-c2ccc(F)cc2)cc2cc(NC(=O)c3cc(CNC(=O)C4(C(F)(F)F)CC4)ccc3Cl)ccc21 [Example 34, 2-Chloro-N-(2-(4-fluorophenyl)-1-methyl-1H-indol-5-yl)-5-(((1-(trifluoromethyl)cyclopropanecarbonyl)amino)methyl)benzamide] | 7.75 nM | 12.2 nM | –
20 | CC1(C(=O)NCc2ccc(Cl)c(C(=O)Nc3ccc4oc(-c5ccc(C(F)(F)F)cc5)nc4c3)c2)CC1 [Example 41, 2-Chloro-5-(((1-methylcyclopropanecarbonyl)amino)methyl)-N-(2-(4-(trifluoromethyl)phenyl)benzo[d]oxazol-5-yl)benzamide] | 25.6 nM | – | –
21 | CCn1c(-c2ccc(Cl)cc2)cc2cc(NC(=O)c3cc(CNC(=O)C4(C)CC4)cnc3C(F)F)ccc21 [Example 42, N-(2-(4-Chlorophenyl)-1-ethyl-1H-indol-5-yl)-2-(difluoromethyl)-5-(((1-methylcyclopropanecarbonyl)amino)methyl)nicotinamide] | 7.21 nM | – | –
22 | CCn1c(-c2ccc(Cl)cc2)nc2cc(NC(=O)c3cc(CNC(=O)C(C)(C)C)ccc3Cl)ccc21 [Example 52, 2-Chloro-N-(2-(4-chlorophenyl)-1-ethyl-1H-benzo[d]imidazol-5-yl)-5-((2,2-dimethylpropanoylamino)methyl)benzamide] | – | 55.2 nM | –
23 | Cn1c(-c2ccc(Cl)cc2)nc2cc(NC(=O)c3cc(CNC(=O)C(C)(C)C)ccc3Cl)ccc21 [Example 55, 2-Chloro-N-(2-(4-chlorophenyl)-1-methyl-1H-benzo[d]imidazol-5-yl)-5-((2,2-dimethylpropanoylamino)methyl)benzamide] | 29.8 nM | – | –
